Reference: patent US8685372B2, “Peptides and aptamers for targeting of neuron or nerves” (The Regents of the University of California, priority 2009, dated 2014)
Residues, ends and D or L forms follow the SMILES beside them. *: point of attachment. 5FAM = O=C1OC2(c3ccc(O)cc3Oc3cc(O)ccc32)c2ccc(C(=O)*)cc21

Assays:
[1] = tested on: dissected nerve tissue; experiment: In vitro nerve binding: dissected nerve tissue incubated with peptide; set-up: species or system mice; conditions: 100 nM peptide, one hour incubation
[2] = tested on: MBP
Procedure: To test the nerve binding affinity of each of the isolated peptide sequences in vitro, dissected nerve tissue was removed from mice and incubated for one hour with 100 nM of each peptide, including a control peptide made up of amino acids that were contained within the various phages selected and sequenced, but in a mixed-up order and designed without repeating any single amino acid except for glycine (which was added to the C-terminus as a flexible linker).

[3] = tested on: sciatic nerves; experiment: In vivo nerve labeling with fluorescently labeled peptides (nerve versus adjacent non-nerve tissue); set-up: species or system mice; conditions: for nerve to muscle contrast: FAM-labeled peptides intravenously
Procedure: To test the nerve binding affinity of each of the isolated peptide sequences in vivo, carboxyfluorescein (FAM)-labeled peptides were injected intravenously into living mice. Following a wash-out period, the contrast between nerve and muscle binding of the labeled peptides was evaluated.
Wild-type albino C57BL6 (Jackson Laboratory) or SKH1 (Charles River Laboratories) mice were treated intravenously with 150 nmoles of fluorescently labeled SEQ ID NO:4 via tail vein injection. Following a 2-3 hour wash-out period for SEQ ID NO:25 or 5-6 hours for SEQ ID NO:31, mice were anesthetized with ketamine and midazolam (80 mg/kg intraperitoneally), a skin incision was made over the dorsal surface of the hind, legs and the sciatic nerves exposed bilaterally. […] Nerves and adjacent non-nerve tissue was delineated with Image J and relative fluorescence was measured. Following background subtraction using dark current measurements and measurements of a standard, the ratios of peptide binding to nerve versus adjacent non-nerve tissue were calculated.

[4] = tested on: sciatic nerves; experiment: Dose response of peptide binding (nerve to muscle contrast ratio); format: in vivo, mice; conditions: 5,000 nmoles, at 2 hours
Procedure: To determine the dose response of peptide binding, the nerve to muscle contrast ratio was measured as a function of the amount of peptide administered (FIG. 4D).
Female 8 week-old SKH1 mice (average weight 25 g) were treated with varying amounts of SEQ ID NO:25 ranging from […]. After a 2 hour washout period, mice were sacrificed and sciatic nerves exposed. Nerves and adjacent non-nerve tissue were delineated with Image 3 and relative fluorescence was measured. Quantification of fluorescence was then performed following subtraction of dark current and normalizing to a standard. For the mice injected with 5,000 nmoles of SEQ ID NO:4, it was noted that background fluorescence was still very high at 2 hours, making the contrast ratio low even though the absolute nerve fluorescence was high. For these mice, the skin incisions were repaired and the mice were allowed to awaken from anesthesia, then at 6 hours following initial SEQ ID NO:4 administration, the mice were sacrificed and the sciatic nerves exposed and analyzed as above.

[5] = Generalized toxicity: activity, behavior and weight gain; format: in vivo, mice; conditions: single intravenous injection of 15-5,000 nmoles, up to 8 weeks of monitoring
Procedure: To evaluate generalized toxicity following peptide administration, the generalized activity, behavior and weight gain of mice after a single intravenous injection of 15-5,000 nmoles of SEQ ID NO:25 was studied.
Female 8 week-old SKH1 mice (average weight 25 g) were treated with varying amounts of SEQ ID NO:25 ranging from 15-5,000 nmoles. Generalized activity, behavior and weight gain were evaluated following single intravenous injection of 15-5,000 nmoles of […] on a daily basis for 3 clays following injection. Thereafter, the mice were monitored three times per week for 8 weeks.

[6] = Peptide biodistribution and metabolism (organ fluorescence, LC-MS and MALDI of urine); format: in vivo, mice
Procedure: (§1) To evaluate the biodistribution of the peptide following systemic administration, organs were harvested from mice treated with SEQ ID NO:4 and fluorescence uptake was evaluated. […] To evaluate the metabolism of the peptide as it passed through the renal system, liquid chromatography-mass spectrometry (LC-MS, Agilent) tracing was used to compare urine obtained from mice injected with SEQ ID NO:25 or SEQ ID NO:31 intravenously versus urine from normal mice spiked with the native SEQ ID NO:25 or SEQ ID NO:31. […] Next, matrix-assisted. laser desorption/ionization (MALDI) was used to evaluate the nature of the modification to the peptide as it was metabolized.
as §1, with “NO:25 and” for “NO:25 or”, “ID NO:3” for “ID NO:31”, “ID NO:25.” for “ID NO:25 or SEQ ID NO:31.”, “Next, matrix-assisted” for “Next, matrix-assisted.”

[7] = tested on: sciatic nerve; experiment: Effect of nerve injury (crush, devascularization) on labeling; format: in vivo, mice
Procedure: The ability of peptides to label peripheral nerves following nerve crush injury was evaluated in mice using SEQ ID NO:25. […] (Occasionally, nerve labeling immediately at the site of injury was slightly diminished compared to nerve labeling several centimeters away from the site of injury (FIG. 6D), but this observation was highly variable (FIGS. 6B,F) and not statistically significant (FIG. 6I)).
Wild type mice were anesthetized and the left sciatic nerve exposed and crushed with microforceps for 3-5 seconds. Muscular contractions during the crush after immediately afterwards were monitored to ensure uniformity of the injury. The skin incision was then closed and mice returned to their cages to recover. At varying times after crush injury, intravenous SEQ ID NO:25 (150 nmoles) was administered. Two to three hours after intravenous SEQ ID NO:25 treatment, the mice were anesthetized, bilateral sciatic nerves exposed and quantitative fluorescence microscopy was used to measure nerve fluorescence. Nerve and adjacent muscle fluorescence were measured using Image J software by measuring standardized boxed regions. Crushed and contralateral control nerve fluorescence were compared for each animal.

[8] = tested on: sciatic nerve; experiment: Histology: localization of binding in nerves of thy1-YFP transgenic mice; format: in vivo; conditions: mouse, in vivo
From the text: To evaluate the localization of SEQ ID NO:4 binding in nerves, we treated thy1-YFP transgenic mice whose axons are genetically encoded with YFP under a neuron specific promoter (Feng et al, Imaging neuronal subsets in transgenic mice expressing multiple spectral variants of GFP. Neuron, 2000) with SEQ ID NO:31. […] These deeper nerve structures were not easily seen either with brightfield (FIG. 5A, insert) or YFP (FIG. 5B, insert) imaging. To evaluate the localization of SEQ ID NO:4 binding on a cellular level, we imaged cryosections (3-5 μm) of nerves and attached muscles from thy1-YFP animals treated with SEQ ID NO:31.

[9] = tested on: sciatic nerve conduction; conditions: mouse, in vivo
Procedure: Maximal compound muscle action potential amplitude (CMAP) and nerve conduction latency were measured as described in Osuchowski et al, Noninvasive model of sciatic nerve conduction in healthy and septic mice: reliability and normative data, Muscle Nerve, 2009), Briefly, control female 8 week-old SKH1 mice and mice treated with SEQ ID NO:25 were anesthetized with ketamine-midazolam and placed in a prone position. CMAP potentials were evoked (Grass stimulator) with stimulating electrode (Medtronics) placed 2 mm lateral to the midline. The recording electrode was an ear-clip electrode (Life-tech.com) placed on the digits of the hind foot and the reference electrode was placed on the heel of the foot. Maximal CMAPs were generated by gradually increasing the stimulation (5-10V, 1 pulse per second, paired, 0.5-2 sec duration) until a maximal, artifact free tracing was obtained. The CMAP traces were captured on a digital oscilloscope (Tektronic). Nerve conduction latency was measured from the beginning of the stimulation to the start of the upslope. CMAP amplitude was measured from the start of the upslope to the peak.

[10] = tested on: sciatic nerves; experiment: In vivo nerve labeling with fluorescently labeled peptides (nerve versus adjacent non-nerve tissue); set-up: species or system mice
[11] = tested on: sciatic nerves and surrounding non-nerve tissue; format: in vivo, mice
From the text: To evaluate the time course of peptide binding to nerve tissue, sciatic nerves and surrounding non-nerve tissue in living mice were imaged before and after intravenous administration of SEQ ID NO:25, Prior to administration of SEQ ID NO: 25 (FIG. 3A), there was little contrast of the nerve (arrowheads) in relation to surrounding non-nerve tissue. Within seconds following intravenous administration of SEQ ID NO:25 (FIG. 3B), the fluorescent injectate could be seen leaking from capillaries (arrows), including capillaries associated with the sciatic nerves (insert). […] Useful contrast between nerve and surrounding muscle begins to develop by 2-3 hours after intravenous injection (FIG. 3E) and lasts several hours (FIG. 3F). […] Serum half-life was calculated at ˜10 minutes.
Female 8 week-old SKH1 mice were anesthetized with ketamine and midazolam and a skin incision was made over the dorsal surface of the hind legs and the sciatic nerves exposed. A preinjection image was taken a dissecting microscope (Lumar Zeiss) and a monochrome camera (Coolsnap). The mice were treated intravenously with […] of SEQ ID NO:25 via, tail vein injection. Sequential fluorescence imaging was then performed as described above: excitation 470/40 nm, emission 525/50 nm, exposure 15 milliseconds-5 seconds. Nerves and adjacent non-nerve tissue were delineated with Image J and relative fluorescence was measured. Quantification of fluorescence was then performed following subtraction of dark current and normalizing to a standard.

[12] = tested on: human recurrent laryngeal nerve; experiment: Human nerve labeling: resected recurrent laryngeal nerves and adjacent muscle incubated with peptide; format: binding
Procedure: To evaluate whether or not SEQ ID NO:25 could selectively bind human nerves as compared to non-nerve tissue, freshly resected recurrent laryngeal nerves and adjacent muscle obtained from patients undergoing total laryngectomy for laryngeal cancer were incubated with SEQ ID NO:25. […] This binding pattern is similar to the binding pattern observed in mice.
To evaluate whether or not SEQ ID NO:25 could selectively bind human nerves as compared to non-nerve tissue, freshly resected recurrent laryngeal nerves and adjacent muscle obtained from patients undergoing total laryngectomy for laryngeal cancer were incubated with SEQ ID NO:25 at […] for 15 minutes and washed in saline for 15 minutes each. The nerve and muscle segments were then placed on a black non-fluorescent plate and imaged (Maestro, CRI). The nerve segments were then embedded in Tissue-Tek®, frozen and cryosectioned. 7-10 μm cryosections were then. imaged with standard fluorescence microscopy. Adjacent sections were stained with hematoxylin and eosin (H&E) and imaged.

## TYTDWLNFWAWP (peptide that specifically binds to a neuron, nerve, or component of either) [SEQ ID NO:2]
[1]
  uptake/binding to dissected nerve tissue compared to no peptide or control peptide: little increase
[2]
  increase in binding to MBP crosslinked beads compared to control beads (with no MBP): 10 fold
[3]; living mice, after wash-out
  nerve to muscle contrast: little significant nerve-to muscle contrast

## NTQTLAKAPEHT (peptide that specifically binds to a neuron, nerve, or component of either) [SEQ ID NO:4]
[1]
  uptake/binding to dissected nerve tissue compared to no peptide or control peptide: two-fold increase over control to no difference from control
[3]; FAM-labeled peptide intravenously, living mice, exposed sciatic nerves, after wash-out
  nerve fluorescence relative to adjacent non-neural tissue: 4 fold
[3]; living mice, after wash-out
  nerve to muscle contrast: best nerve to non-nerve contrast
[4]
  nerve to muscle contrast ratio: low
[5]
  generalized activity, behavior and weight gain versus uninjected/control mice: similar
[6]; mouse, in vivo
  biodistribution following systemic administration (organ fluorescence uptake): accumulated in the kidney and was excreted into the urine
[7]; 3 days following injury
  nerve labeling after injury: diminished
[7]; 7 days after crush injury
  nerve labeling compared to contralateral control nerve: recovers
[7]; mouse, in vivo
  nerve fluorescence as a function of distance from crush site: does not significantly diminish
[8]
  colocalization of labeling with myelin or axons: does not appear to colocalize
[8]; listed as SEQ ID NO: 4
  colocalization of labeling with myelin or axons: does not colocalize
[9]
  shape of the CMAP curve versus control animals: similar
[10]; mouse, in vivo
  labeling of nerves in the central nervous system (CNS): no evidence of labeling

## CC(=O)N[C@@H](CO)C(=O)N[C@@H](Cc1c[nH]cn1)C(=O)N[C@@H](CO)C(=O)N[C@@H](CC(N)=O)C(=O)N[C@H](C(=O)N[C@@H](CCC(N)=O)C(=O)N[C@H](C(=O)N[C@@H](CC(C)C)C(=O)N[C@@H](C)C(=O)N[C@@H](CCCCN)C(=O)N[C@@H](C)C(=O)N1CCC[C@H]1C(=O)N[C@@H](CCC(=O)O)C(=O)N[C@@H](Cc1c[nH]cn1)C(=O)N[C@H](C(=O)NCC(=O)N[C@@H](CCCCNC(=O)c1ccc2c(c1)C(=O)OC21c2ccc(O)cc2Oc2cc(O)ccc21)C(N)=O)[C@@H](C)O)[C@@H](C)O)[C@@H](C)O [SEQ ID NO:25, acetyl-SHSNTQTLAKAPEHTGK(5,6FAM)-amide] (Ac-SHSNTQTLAKAPEHTGK(5FAM)-NH2)
[3]; derivatives of peptide SEQ ID NO: 4
  Nerve contrast: High
[11]; after intravenous injection
  time at which useful contrast between nerve and surrounding muscle begins to develop: 2 to 3 h
[11]; by 4-5 hours post-injection
  nerve to muscle contrast ratio: 8-10 fold
[11]; by 24 hrs post-injection
  visible contrast between nerve and muscle: all visible contrast between nerve and muscle had disappeared
[11]; mouse, in vivo, iv
  time of highest muscle fluorescence: highest immediately following intravenous administration
  time of peak nerve fluorescence post-administration: around 10 minutes
[5]
  generalized activity, behavior and weight gain versus uninjected/control mice: did not have any apparent changes
[6]; LC-MS
  native peptide detectable in urine of intravenously injected mice: none
[6]; MALDI
  only fluorescently labeled entity identified in urine: lysine-FAM
[7]; 1 day after crush injury
  nerve labeling compared to contralateral control nerve: intact
[7]; 3 days after crush injury
  decrease of nerve labeling compared to contralateral control nerve: 40%
[7]; 7 days after crush injury
  nerve labeling compared to contralateral control nerve: returned to control levels
[7]; immediately following nerve devascularization
  nerve fluorescence compared to contralateral control side: highly diminished
[12]; 50 μM for 15 minutes
  binding to human nerves as compared to adjacent muscle: Selective binding
[12]; tissue sections
  pattern of nerve binding in human tissue: connective tissue surrounding the nerve, i.e. epineurium, perineurium, and endoneurium
[10]; facial nerve, brachial plexus, sciatic nerve
  systemic survey of nerves labeled: all nerves were brightly labeled
